This is an account of results in ChEMBL document CHEMBL3217595, “RCAI-133, an N-methylated analogue of KRN7000, activates mouse natural killer T cells to produce Th2-biased cytokines” (2013).

Active and inactive are the calls of the source. The calls are words filed in the database; no cut-off is given here.

Test [1] deals with Mus musculus. The experiment in a line: Immunostimulatory activity in C57BL/6 mouse assessed as induction of IL-4 production in serum at 2 ug, iv administered through PBS solution. The test is classed as functional, organism-based.
In test [2] the test system is Mus musculus. The experiment in a line: Immunostimulatory activity in C57BL/6 mouse assessed as induction of IFN-gamma production in serum at 2 ug, iv administered through PBS solution by ELISA. It is filed as functional, organism-based. (In an ELISA, binding on a coated surface is turned into a signal by an enzyme label.)
For test [3], the system named is Mus musculus. Briefly: Immunostimulatory activity in C57BL/6 mouse assessed as induction of IL-4/IFN-gamma ratio in serum at 2 ug, iv administered through PBS solution. The test is classed as functional.

Regarding `CCCCCCCCCCCCCCCCC(C)(C)C(=O)N[C@@H](CO[C@H]1O[C@H](CO)[C@H](O)[C@H](O)[C@H]1O)[C@H](O)[C@H](O)CCCCCCCCCCCCCC`, the result in test [1] and in test [2] was Active.

Regarding `CCCCCCCCCCCCCCCC[C@@H](O)C(=O)N(C)[C@@H](CO[C@H]1O[C@H](CO)[C@H](O)[C@H](O)[C@H]1O)[C@H](O)[C@H](O)CCCCCCCCCCCCCC`, the result in test [1] and in test [2] was inactive.

Turning to `CCCCCCCCCCCCCCCC[C@@H](C)C(=O)N[C@@H](CO[C@H]1O[C@H](CO)[C@H](O)[C@H](O)[C@H]1O)[C@H](O)[C@H](O)CCCCCCCCCCCCCC`, the result in test [1] and in test [2] was Active.

For `CCCCCCCCCCCCCCCC[C@@H](C)C(=O)N(C)[C@@H](CO[C@H]1O[C@H](CO)[C@H](O)[C@H](O)[C@H]1O)[C@H](O)[C@H](O)CCCCCCCCCCCCCC`, the outcome in test [1] and in test [2] was inactive.

As for `CCCCCCCCCCCCCCCCCCCCCCCCCC(=O)N[C@@H](CO[C@H]1O[C@H](CO)[C@H](O)[C@H](O)[C@H]1O)[C@H](O)[C@H](O)CCCCCCCCCCCCCC` [RGI-7000], the Ratio in test [3] is given as 0.0043.

For the compound `CCCCCCCCCCCCCCCC[C@@H](O)C(=O)N[C@@H](CO[C@H]1O[C@H](CO)[C@H](O)[C@H](O)[C@H]1O)[C@H](O)[C@H](O)CCCCCCCCCCCCCC`, the outcome in test [1] and in test [2] was Active.

Consider `CCCCCCCCCCCCCCCCCCCCCCCCCC(=O)N(C)[C@@H](CO[C@H]1O[C@H](CO)[C@H](O)[C@H](O)[C@H]1O)[C@H](O)[C@H](O)CCCCCCCCCCCCCC`, for which, in test [3], the Ratio was 0.017.

With `CCCCCCCCCCCCCCCCCC(=O)N[C@@H](CO[C@H]1O[C@H](CO)[C@H](O)[C@H](O)[C@H]1O)[C@H](O)[C@H](O)CCCCCCCCCCCCCC`, the result in test [1] and in test [2] was Active.

Consider `CCCCCCCCCCCCCCCCC(C)(C)C(=O)N(C)[C@@H](CO[C@H]1O[C@H](CO)[C@H](O)[C@H](O)[C@H]1O)[C@H](O)[C@H](O)CCCCCCCCCCCCCC`, for which the outcome in test [1] and in test [2] was inactive.

Regarding `CCCCCCCCCCCCCCCCCC(=O)N(C)[C@@H](CO[C@H]1O[C@H](CO)[C@H](O)[C@H](O)[C@H]1O)[C@H](O)[C@H](O)CCCCCCCCCCCCCC`, in test [3], the Ratio came out at 0.0095. Moreover, the result in test [1] and in test [2] was inactive.
